# Assay results from patent US11161850B2, “Fused pyrazine derivatives as A2A / A2B inhibitors” (Incyte Corporation, priority 2018, dated 2021).
# Like-named read-outs stand apart in the source and are kept apart here.
# Key:
# Adenosine A2A = Adenosine A2A (Homo sapiens (Human), UniProt P29274); experiment: A2A Tag-Lite HTRF assay; type: binding
# From the text: Example C. A2A Tag-Lite® HTRF Assay
# [1] = target: human adenosine A2B receptor (Homo sapiens (Human), UniProt P29275); experiment: Adenosine A2B Receptor Cyclic AMP GS Assay; type: cell-based; details: A2B_cAMP_EC50 (nM), HEK-293 cells expressing human A2B, agonist NECA 12 nM
# Procedure, shortened: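 Stably transfected HEK-293 cells were preincubated with compound for 30 min at room temperature, then stimulated with 12 nM NECA for 60 min. cAMP accumulation was read by FRET (665/620 ratio), and EC50 was fitted from percent of control versus log compound concentration.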
# [2] = Tag-Lite Adenosine A2A labeled cells, fluorescent ligand 12.5 nM, read-out: A2A_Ki
# Sequence of Adenosine A2A (P29274 whole entry): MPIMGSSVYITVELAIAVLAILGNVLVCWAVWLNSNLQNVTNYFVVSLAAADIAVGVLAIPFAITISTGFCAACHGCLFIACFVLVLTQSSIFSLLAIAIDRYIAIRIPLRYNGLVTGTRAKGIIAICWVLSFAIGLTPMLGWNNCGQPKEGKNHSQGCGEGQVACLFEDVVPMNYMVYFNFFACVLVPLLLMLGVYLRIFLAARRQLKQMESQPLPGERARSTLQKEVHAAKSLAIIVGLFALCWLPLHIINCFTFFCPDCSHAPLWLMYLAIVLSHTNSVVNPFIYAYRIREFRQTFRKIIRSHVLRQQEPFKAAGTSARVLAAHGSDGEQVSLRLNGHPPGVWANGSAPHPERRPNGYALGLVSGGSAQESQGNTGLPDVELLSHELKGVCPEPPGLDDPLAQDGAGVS
# Sequence of human adenosine A2B receptor (P29275 whole entry): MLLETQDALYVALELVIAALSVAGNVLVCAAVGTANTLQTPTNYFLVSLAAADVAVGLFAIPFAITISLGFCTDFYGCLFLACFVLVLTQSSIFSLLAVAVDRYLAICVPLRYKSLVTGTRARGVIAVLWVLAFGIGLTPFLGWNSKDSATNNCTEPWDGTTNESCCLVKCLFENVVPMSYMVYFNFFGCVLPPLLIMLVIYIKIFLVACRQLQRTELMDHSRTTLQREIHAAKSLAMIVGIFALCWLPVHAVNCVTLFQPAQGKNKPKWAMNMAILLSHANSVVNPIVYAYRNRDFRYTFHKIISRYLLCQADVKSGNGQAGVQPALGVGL
smiles,measurement,setting,value
"Cc1cccnc1COc1nc2c(N)nc(-c3cccc(C#N)c3)c(-c3ccncn3)n2n1 [Example 119, 3-(8-amino-2-((3-methylpyridin-2-yl)methoxy)-5-(pyrimidin-4-yl)-[1,2,4]triazolo[1,5-a]pyrazin-6-yl)benzonitrile]",Ki,Adenosine A2A; [2],< 0.01 µM
same,EC50,[1],< 10 nM
"Cc1ncoc1-c1c(-c2cccc(C#N)c2)nc(N)c2nc(C(NCCO)c3c(F)cccc3F)nn12 (centres unmarked) [Example 79, 3-(8-amino-2-((2,6-difluorophenyl)((2-hydroxyethyl)amino)methyl)-5-(4-methyloxazol-5-yl)-[1,2,4]triazolo[1,5-a]pyrazin-6-yl)benzonitrile]",Ki,Adenosine A2A; [2],< 0.01 µM
same,EC50,[1],< 10 nM
"Cn1nc(-c2c(-c3cccc(C#N)c3)nc(N)c3nc(Cc4ccccn4)nn23)ccc1=O [Example 29, 3-(8-Amino-5-(1-methyl-6-oxo-1,6-dihydropyridazin-3-yl)-2-(pyridin-2-ylmethyl)-[1,2,4]triazolo[1,5-a]pyrazin-6-yl)benzonitrile]",Ki,Adenosine A2A,< 0.01 µM
same,EC50,[1],< 10 nM
"CN1CCC(NCc2cccc(F)c2Cc2nc3c(N)nc(-c4cccc(C#N)c4)c(-c4ccncn4)n3n2)C1=O (centres unmarked) [Example 72, 3-(8-amino-2-(2-fluoro-6-(((1-methyl-2-oxopyrrolidin-3-yl)amino)methyl)benzyl)-5-(pyrimidin-4-yl)-[1,2,4]triazolo[1,5-a]pyrazin-6-yl)benzonitrile]",Ki,Adenosine A2A; [2],< 0.01 µM
same,EC50,[1],< 10 nM
"N#Cc1cccc(-c2nc(N)c3nc(Cc4cccn5ccnc45)nn3c2-c2ccncn2)c1 [Example 45, 3-(8-Amino-2-(imidazo[1,2-a]pyridin-8-ylmethyl)-5-(pyrimidin-4-yl)-[1,2,4]triazolo[1,5-a]pyrazin-6-yl)benzonitrile]",Ki,Adenosine A2A; [2],< 0.01 µM
same,EC50,[1],< 10 nM
"N#Cc1cccc(-c2cn3nc(Cc4ncccc4Nc4cnn(C5CCOCC5)c4)nc3c(N)n2)c1F [Example 121, 3-(8-amino-2-((3-((1-(tetrahydro-2H-pyran-4-yl)-1H-pyrazol-4-yl)amino)pyridin-2-yl)methyl)-[1,2,4]triazolo[1,5-a]pyrazin-6-yl)-2-fluorobenzonitrile]",Ki,Adenosine A2A; [2],< 0.01 µM
same,EC50,[1],10 to 100 nM
"N#Cc1cccc(-c2nc(N)c3cc(Nc4ccccc4)nn3c2-c2ccncc2)c1 [Example 25, 3-(4-Amino-2-(phenylamino)-7-(pyridin-4-yl)pyrazolo[1,5-a]pyrazin-6-yl)benzonitrile]",Ki,Adenosine A2A; [2],< 0.01 µM
same,EC50,[1],10 to 100 nM
"COc1cccc(Cc2nc3c(N)nc(-c4cccc(C#N)c4)c(-c4ccc(=O)n(C)n4)n3n2)n1 [Example 128, 3-(8-amino-2-((6-methoxypyridin-2-yl)methyl)-5-(1-methyl-6-oxo-1,6-dihydropyridazin-3-yl)-[1,2,4]triazolo[1,5-a]pyrazin-6-yl)benzonitrile]",Ki,Adenosine A2A; [2],< 0.01 µM
same,EC50,[1],10 to 100 nM
"Cn1cc(-c2cccnc2Cc2nc3c(N)nc(-c4cccc(C#N)c4)c(-c4ccncn4)n3n2)cn1 [Example 122, 3-(8-Amino-2-((3-(1-methyl-1H-pyrazol-4-yl)pyridin-2-yl)methyl)-5-(pyrimidin-4-yl)-[1,2,4]triazolo[1,5-a]pyrazin-6-yl)benzonitrile]",Ki,Adenosine A2A; [2],< 0.01 µM
same,EC50,[1],10 to 100 nM
"Cn1cnc(S(=O)(=O)N2CCCC2Cc2nc3c(N)nc(-c4cccc(C#N)c4F)cn3n2)c1 (centres unmarked) [Example 90, 3-(8-amino-2-((1-((1-methyl-1H-imidazol-4-yl)sulfonyl)pyrrolidin-2-yl)methyl)-[1,2,4]triazolo[1,5-a]pyrazin-6-yl)-2-fluorobenzonitrile]",Ki,Adenosine A2A; [2],< 0.01 µM
same,EC50,[1],100 to 1000 nM
"CCOC(=O)Nc1nc2c(N)nc(-c3cccc(C#N)c3)cn2n1 [Example 14, Ethyl(8-amino-6-(3-cyanophenyl)-[1,2,4]triazolo[1,5-a]pyrazin-2-yl)carbamate]",Ki,Adenosine A2A,0.01 to 0.1 µM
same,EC50,[1],> 1000 nM
"N#Cc1cccc(-c2nc(N)c3cc(CN4CCC4)nn3c2-c2ccncn2)c1 [Example 13, 3-(4-Amino-2-(azetidin-1-ylmethyl)-7-(pyrimidin-4-yl)pyrazolo[1,5-a]pyrazin-6-yl)benzonitrile]",Ki,Adenosine A2A,0.01 to 0.1 µM
same,EC50,[1],100 to 1000 nM
"N#Cc1cccc(-c2cn3nc(Cc4ncccc4Nc4cnn(Cc5ccncc5)c4)nc3c(N)n2)c1F [Example 120, 3-(8-Amino-2-((3-((1-(pyridin-4-ylmethyl)-1H-pyrazol-4-yl)amino)pyridin-2-yl)methyl)-[1,2,4]triazolo[1,5-a]pyrazin-6-yl)-2-fluorobenzonitrile]",Ki,Adenosine A2A; [2],< 0.01 µM
same,EC50,[1],10 to 100 nM
"Cc1ncoc1-c1c(-c2cccc(C#N)c2)nc(N)c2nc(Cc3c(F)cccc3CN3CC[C@@](C)(C(=O)O)C3)nn12 [Example 76, (R)-1-(2-((8-amino-6-(3-cyanophenyl)-5-(4-methyloxazol-5-yl)-[1,2,4]triazolo[1,5-a]pyrazin-2-yl)methyl)-3-fluorobenzyl)-3-methylpyrrolidine-3-carboxylic Acid]",Ki,Adenosine A2A; [2],< 0.01 µM
same,EC50,[1],10 to 100 nM
"N#Cc1cccc(-c2nc(N)c3nc(S(=O)(=O)c4ccccc4)nn3c2-c2ccncn2)c1 [Example 60, 3-(8-Amino-2-(phenylsulfonyl)-5-(pyrimidin-4-yl)-[1,2,4]triazolo[1,5-a]pyrazin-6-yl)benzonitrile]",Ki,Adenosine A2A; [2],< 0.01 µM
same,EC50,[1],10 to 100 nM
"CN[C@H]1C[C@H](n2cc(-c3cccc(F)c3Cc3nc4c(N)nc(-c5cccc(C#N)c5F)cn4n3)cn2)C1 [Example 116, 3-(8-amino-2-(2-fluoro-6-(1-((trans)-3-(methylamino)cyclobutyl)-1H-pyrazol-4-yl)benzyl)-[1,2,4]triazolo[1,5-a]pyrazin-6-yl)-2-fluorobenzonitrile]",Ki,Adenosine A2A; [2],< 0.01 µM
same,EC50,[1],10 to 100 nM
"Cc1n[nH]cc1-c1c(-c2cccc(C#N)c2)nc(N)c2nc(C(O)c3c(F)cccc3F)nn12 (single isomer, unassigned) [Example 102, 3-(8-amino-2-((2,6-difluorophenyl)(hydroxy)methyl)-5-(3-methyl-1H-pyrazol-4-yl)-[1,2,4]triazolo[1,5-a]pyrazin-6-yl)benzonitrile]",Ki,Adenosine A2A,< 0.01 µM
same,EC50,[1],< 10 nM
"Cn1ncc(NCc2cccc(F)c2Cc2nc3c(N)nc(-c4cccc(C#N)c4)c(-c4ccncn4)n3n2)n1 [Example 74, 3-(8-amino-2-(2-fluoro-6-(((2-methyl-2H-1,2,3-triazol-4-yl)amino)methyl)benzyl)-5-(pyrimidin-4-yl)-[1,2,4]triazolo[1,5-a]pyrazin-6-yl)benzonitrile]",Ki,Adenosine A2A; [2],< 0.01 µM
same,EC50,[1],< 10 nM
"CN(C)Cc1cccc(F)c1C(O)c1nc2c(N)nc(-c3cccc(C#N)c3)c(-c3ccncn3)n2n1 (single isomer, unassigned) [Example 100, 3-(8-amino-2-((2-((dimethylamino)methyl)-6-fluorophenyl)(hydroxy)methyl)-5-(pyrimidin-4-yl)-[1,2,4]triazol[1,5-a]pyrazin-6-yl)benzonitrile]",Ki,Adenosine A2A,< 0.01 µM
same,EC50,[1],100 to 1000 nM
"CCN(C)C(=O)c1cc2c(N)nc(-c3cccc(C#N)c3)c(-c3ccncn3)n2n1 [Example 11, 4-Amino-6-(3-cyanophenyl)-N-ethyl-N-methyl-7-(pyrimidin-4-yl)pyrazolo[1,5-a]pyrazine-2-carboxamide]",Ki,Adenosine A2A; [2],< 0.01 µM
same,EC50,[1],< 10 nM
"N#Cc1cccc(-c2cn3nc(Cc4ccccc4F)c(C#N)c3c(N)n2)c1 [Example 21, 4-Amino-6-(3-cyanophenyl)-2-(2-fluorobenzyl)pyrazolo[1,5-a]pyrazine-3-carbonitrile]",Ki,Adenosine A2A; [2],< 0.01 µM
same,EC50,[1],100 to 1000 nM
"Cn1cc(-c2cccc(F)c2Cc2nc3c(N)nc(-c4cccc(C#N)c4F)cn3n2)cn1 [Example 83, 3-(8-amino-2-(2-fluoro-6-(1-methyl-1H-pyrazol-4-yl)benzyl)-[1,2,4]triazolo[1,5-a]pyrazin-6-yl)-2-fluorobenzonitrile]",Ki,Adenosine A2A; [2],< 0.01 µM
same,EC50,[1],< 10 nM
"N#Cc1cccc(-c2nc(N)c3cc(Cc4ccccc4F)nn3c2C#N)c1 [Example 20, 4-Amino-6-(3-cyanophenyl)-2-(2-fluorobenzyl)pyrazolo[1,5-a]pyrazine-7-carbonitrile]",Ki,Adenosine A2A; [2],< 0.01 µM
same,EC50,[1],< 10 nM
"N#Cc1cccc(-c2nc(N)c3nc(C(O)c4c(F)cccc4CN4CCCC4)nn3c2-c2ccncn2)c1 (single isomer, unassigned) [Example 110, 3-(8-amino-2-((2-fluoro-6-(pyrrolidin-1-ylmethyl)phenyl)(hydroxy)methyl)-5-(pyrimidin-4-yl)-[1,2,4]triazolo[1,5-a]pyrazin-6-yl)benzonitrile]",Ki,Adenosine A2A,< 0.01 µM
same,EC50,[1],100 to 1000 nM
"N#Cc1cccc(-c2nc(N)c3nc(Cc4c(F)cccc4CN[C@H]4CCNC4=O)nn3c2-c2ccncn2)c1 [Example 68, (S)-3-(8-amino-2-(2-fluoro-6-(((2-oxopyrrolidin-3-yl)amino)methyl)benzyl)-5-(pyrimidin-4-yl)-[1,2,4]triazolo[1,5-a]pyrazin-6-yl)benzonitrile]",Ki,Adenosine A2A; [2],< 0.01 µM
same,EC50,[1],10 to 100 nM
"CCCn1nccc1-c1c(-c2cccc(C#N)c2)nc(N)c2cc(C(=O)NCC)nn12 [Example 2, 4-Amino-6-(3-cyanophenyl)-N-ethyl-7-(1-propyl-1H-pyrazol-5-yl)pyrazolo[1,5-a]pyrazine-2-carboxamide]",Ki,Adenosine A2A; [2],< 0.01 µM
same,EC50,[1],10 to 100 nM
"Cc1ncoc1-c1c(-c2cccc(C#N)c2)nc(N)c2nc(C(N)c3c(F)cccc3F)nn12 (centres unmarked) [Example 77, 3-(8-amino-2-(amino(2,6-difluorophenyl)methyl)-5-(4-methyloxazol-5-yl)-[1,2,4]triazolo[1,5-a]pyrazin-6-yl)benzonitrile]",Ki,Adenosine A2A; [2],< 0.01 µM
same,EC50,[1],< 10 nM
"N#Cc1cccc(-c2nc(N)c3nc(Cc4c(F)cccc4CNCC(N)=O)nn3c2-c2ccncn2)c1 [Example 69, 2-((2-((8-amino-6-(3-cyanophenyl)-5-(pyrimidin-4-yl)-[1,2,4]triazolo[1,5-a]pyrazin-2-yl)methyl)-3-fluorobenzyl)amino)acetamide]",Ki,Adenosine A2A; [2],< 0.01 µM
same,EC50,[1],< 10 nM
